In article PMC3446843 (Toxicological Sciences, 2012):

Key:
[1] = test system: isolated mouse liver mitochondria; assay: Loss of mitochondrial transmembrane potential; format: biochemical; conditions: for ΔΨm loss EC20: 20% of maximal loss of ΔΨm (50µM mClCCP = 100%), 30-min incubation
[2] = test system: isolated mouse liver mitochondria, complex I; assay: Oxygen consumption through complex I; conditions: for O2 cons CI EC20: inhibition of oxygen consumption, malate + glutamate + ADP, 2µM rotenone = 100%; for effect on oxygen consumption (in words): with malate/glutamate and/or succinate
[3] = test system: isolated mouse liver mitochondria; assay: Cytochrome c release; format: biochemical; conditions: without Ca2+ pulse
[4] = test system: isolated mouse liver mitochondria; assay: Mitochondrial swelling; conditions: without Ca2+ pulse
[5] = short incubation of isolated mitochondria; ref Kamel et al. (2012); cited from earlier work

Compound	ΔΨm loss EC20 [1]	O2 cons CI EC20 [2]	other results
O=P(O)(O)C(Cl)(Cl)P(=O)(O)O [Clodronate]	> 400 µM	227.2 µM	
COc1cc(/C=C/C(=O)CC(=O)/C=C/c2ccc(O)c(OC)c2)ccc1O [Curcumin]	> 200 µM	> 200 µM	
CC(C)(S)[C@@H](N)C(=O)O [D-penicillamine]	> 400 µM	> 800 µM	
Nc1ccc(S(=O)(=O)c2ccc(N)cc2)cc1 [Dapsone]	> 400 µM	205.5 µM	
C[C@@H]1C[C@H]2[C@@H]3CCC4=CC(=O)C=C[C@]4(C)[C@@]3(F)[C@@H](O)C[C@]2(C)[C@@]1(O)C(=O)CO [Dexamethasone]	> 200 µM	> 200 µM	
O=C(O)Cc1ccccc1Nc1c(Cl)cccc1Cl [Diclofenac]	137.9 µM	29.8 µM	induction of cytochrome c release (in words) [3]: unable to induce
Cc1c(N(C)CS(=O)(=O)[O-])c(=O)n(-c2ccccc2)n1C.[Na+] [Dipyrone]	354.4 µM	107.3 µM	
C#Cc1cccc(Nc2ncnc3cc(OCCOC)c(OCCOC)cc23)c1 [Erlotinib]	195.9 µM		effect on oxygen consumption (in words) [2]: increased oxygen consumption
CC[C@H]1OC(=O)[C@H](C)[C@@H](O[C@H]2C[C@@](C)(OC)[C@@H](O)[C@H](C)O2)[C@H](C)[C@@H](O[C@@H]2O[C@H](C)C[C@H](N(C)C)[C@H]2O)[C@](C)(O)C[C@@H](C)C(=O)[C@H](C)[C@@H](O)[C@]1(C)O [Erythromycin]	> 400 µM	27.9 µM	
CCOC(=O)c1ccc(O)cc1 [Ethyl paraben]	297.5 µM	47.8 µM	
OC(Cn1cncn1)(Cn1cncn1)c1ccc(F)cc1F [Fluconazole]	512.7 µM	186.6 µM	
Nc1nc2ncc(CNc3ccc(C(=O)N[C@@H](CCC(=O)O)C(=O)O)cc3)nc2c(=O)[nH]1 [Folic acid]	276.2 µM	213.0 µM	
O=C(O)c1cc(O)c(O)c(O)c1 [Gallic acid]	> 200 µM	153.9 µM	
CC(C)Cc1ccc(C(C)C(=O)O)cc1 (centres unmarked) [Ibuprofen]	355.9 µM	132.1 µM	
CC(=O)N1CCN(c2ccc(OCC3COC(Cn4ccnc4)(c4ccc(Cl)cc4Cl)O3)cc2)CC1 (centres unmarked) [Ketoconazole]	243.0 µM	2.9 µM	
Nc1ccn([C@@H]2CS[C@H](CO)O2)c(=O)n1 [Lamivudine]	347.2 µM	317.4 µM	
CCN(CC)CC(=O)Nc1c(C)cccc1C [Lidocaine]	339.5 µM		effect on oxygen consumption (in words) [2]: increased oxygen consumption
CC[C@H](C)C(=O)O[C@H]1C[C@@H](C)C=C2C=C[C@H](C)[C@H](CC[C@@H]3C[C@@H](O)CC(=O)O3)[C@H]21 [Lovastatin]	43.6 µM	6.2 µM	
Cc1ccc(Nc2c(F)cccc2Cl)c(CC(=O)O)c1 [Lumiracoxib]	148.8 µM	12.0 µM	
[Cl][Mn][Cl] [Manganese chloride]	> 800 µM	> 400 µM	
CN(C)C(=N)N=C(N)N [Metformin]	388.4 µM	351.8 µM	
COC(=O)c1ccc(O)cc1 [Methyl paraben]	> 200 µM	94.8 µM	
C[C@](N)(Cc1ccc(O)c(O)c1)C(=O)O [Methyldopa]	> 400 µM	63.1 µM	
CCOC(=O)[N-]c1cn(N2CCOCC2)n[o+]1 [Molsidomine]	> 400 µM	> 200 µM	
C=CCN1CC[C@]23c4c5ccc(O)c4O[C@H]2C(=O)CC[C@@]3(O)[C@H]1C5 [Naloxone]	298.7 µM	> 400 µM	

Compound	ΔΨm loss EC20 [1]	O2 cons CI EC20 [2]	other results
CN1CCC[C@H]1c1cccnc1 [Nicotine]	> 400 µM	312 µM	
O=C(N/N=C/c1ccc([N+](=O)[O-])o1)c1ccc(O)cc1 [Nifuroxazide]	388.2 µM	3.7 µM	
O=C1CN(/N=C/c2ccc([N+](=O)[O-])o2)C(=O)N1 [Nitrofurantoin]	442.5 µM	8.7 µM	
CO[C@@H]1[C@@H](OC(N)=O)[C@@H](O)[C@H](Oc2ccc3c(O)c(NC(=O)c4ccc(O)c(CC=C(C)C)c4)c(=O)oc3c2C)OC1(C)C [Novobiocin]	351.6 µM	173.5 µM	
CCN(CC)CC#CCOC(=O)C(O)(c1ccccc1)C1CCCCC1 (centres unmarked) [Oxybutynine]	178.3 µM	115.4 µM	
C#CCN(C)Cc1ccccc1 [Pargyline]	243 µM	206.8 µM	
C1CCC(C(CC2CCCCN2)C2CCCCC2)CC1 (centres unmarked) [Perhexiline]	3.2 µM	87.7 µM	induction of cytochrome c release (in words) [3]: induced mitochondrial swelling and cytochrome c release when very low concentrations were used; induction of mitochondrial swelling (in words) [4]: induced mitochondrial swelling and cytochrome c release when very low concentrations were used
Oc1cc(O)cc(O)c1 [Phloroglucinol]	> 800 µM	> 400 µM	
CN1C(C(=O)Nc2ccccn2)=C(O)c2ccccc2S1(=O)=O [Piroxicam]	101.7 µM	6.6 µM	
CCCOC(=O)c1ccc(O)cc1 [Propyl paraben]	162.8 µM	28.4 µM	
NC(=O)c1cnccn1 [Pyrazinamide]	> 400 µM	190.9 µM	
CNC(=C[N+](=O)[O-])NCCSCc1ccc(CN(C)C)o1 [Ranitidine]	368.1 µM	97.3 µM	
O=C1NS(=O)(=O)c2ccccc21 [Saccharin]	> 400 µM	179.4 µM	
O=C(O)c1ccccc1O [Salicylic acid]	304.3 µM	120.9 µM	
CC(C)(C)NC(=O)[C@@H]1C[C@@H]2CCCC[C@@H]2CN1C[C@@H](O)[C@H](Cc1ccccc1)NC(=O)[C@H](CC(N)=O)NC(=O)c1ccc2ccccc2n1 [Saquinavir]	10.3 µM		concentrations collapsing the ΔΨm and altering the mitochondrial respiration ([1]; ΔΨm and respiration): lower than 50 μM; effect on oxygen consumption (in words) [2]: increased oxygen consumption
CN[C@@H]1[C@H](O)[C@H](NC)[C@H]2O[C@@]3(O)C(=O)C[C@@H](C)O[C@H]3O[C@@H]2[C@H]1O [Spectinomycin]	> 400 µM		effect on oxygen consumption (in words) [2]: increased oxygen consumption
OC[C@H]1O[C@@](CO)(O[C@H]2O[C@H](CO)[C@@H](O)[C@H](O)[C@H]2O)[C@@H](O)[C@@H]1O [Sucrose]	> 800 µM	> 800 µM	
Cc1cc(NS(=O)(=O)c2ccc(N)cc2)no1 [Sulfamethoxazole]	> 400 µM	> 400 µM	
CC1=C(CC(=O)O)c2cc(F)ccc2/C1=C\c1ccc([S+](C)[O-])cc1 (centres unmarked) [Sulindac]	> 200 µM	35.6 µM	
CNS(=O)(=O)Cc1ccc2[nH]cc(CCN(C)C)c2c1 [Sumatriptan]	248.3 µM	> 400 µM	compound metabolized [5]: 30%
NCCS(=O)(=O)O [Taurine]	> 800 µM	> 800 µM	
Cc1c(C)c2c(c(C)c1O)CCC(C)(COc1ccc(CC3SC(=O)NC3=O)cc1)O2 (centres unmarked) [Troglitazone]	3.4 µM	6.0 µM	induction of cytochrome c release (in words) [3]: unable to trigger; induction of mitochondrial swelling (in words) [4]: unable to trigger
C[C@@H]1O[C@@H](OC[C@H]2O[C@@H](Oc3c(-c4ccc(OCCO)c(OCCO)c4)oc4cc(OCCO)cc(O)c4c3=O)[C@H](O)[C@@H](O)[C@@H]2O)[C@H](O)[C@H](O)[C@H]1O [Troxerutin]	> 400 µM	170.5 µM	
CCCC(CCC)C(=O)O [Valproic acid]	267.2 µM	44.9 µM	
Cc1cn([C@H]2C[C@H](N=[N+]=[N-])[C@@H](CO)O2)c(=O)[nH]c1=O [Zidovudine]	416.1 µM		effect on oxygen consumption (in words) [2]: increased oxygen consumption
